Results on ten molecules are retold here after ChEMBL document CHEMBL1909046, “DrugMatrix in vitro pharmacology data”.

Molecules are shown by their SMILES.

The nature of assay [1]: DRUGMATRIX: Serotonin (5-Hydroxytryptamine) 5-HT3 radioligand binding (ligand: [3H] GR-65630). Type of assay: cell membranes, Membrane. The conditions noted are these: hek293; Not Active = under 50% inhibition at 10 µM.
For assay [2], the target named is T1, Muscarinic acetylcholine receptor M5 (Homo sapiens, UniProt P08912). Also: in other assays of this panel Not Active means under 50% inhibition at 10 µM.
T1 sequence (P08912 whole entry): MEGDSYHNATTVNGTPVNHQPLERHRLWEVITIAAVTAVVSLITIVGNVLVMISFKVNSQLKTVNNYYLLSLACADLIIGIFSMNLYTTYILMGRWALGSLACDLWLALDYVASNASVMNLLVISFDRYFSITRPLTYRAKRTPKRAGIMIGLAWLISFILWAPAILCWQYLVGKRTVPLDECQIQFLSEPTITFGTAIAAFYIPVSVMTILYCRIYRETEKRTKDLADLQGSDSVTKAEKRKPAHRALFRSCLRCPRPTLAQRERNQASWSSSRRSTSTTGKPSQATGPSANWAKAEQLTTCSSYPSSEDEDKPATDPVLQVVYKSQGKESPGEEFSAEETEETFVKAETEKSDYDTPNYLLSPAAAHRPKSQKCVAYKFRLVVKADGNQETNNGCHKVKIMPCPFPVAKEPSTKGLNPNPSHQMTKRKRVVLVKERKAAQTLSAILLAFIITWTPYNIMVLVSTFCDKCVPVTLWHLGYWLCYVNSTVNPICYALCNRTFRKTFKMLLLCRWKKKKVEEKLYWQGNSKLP
The class given is cell membranes, CHO-K1, Membrane. The conditions noted are these: cho-k1.

Assay [3] deals with Sodium-dependent noradrenaline transporter (Homo sapiens, UniProt P23975). Put plainly: DRUGMATRIX: Norepinephrine Transporter radioligand binding (ligand: [125I] RTI-55). Type of assay: cell membranes, MDCK, Membrane. The conditions noted are these: Not Active = under 50% inhibition at 10 µM.
The next assay concerns the target T2, Substance-K receptor (Homo sapiens, UniProt P21452). Also: in other assays of this panel Not Active means under 50% inhibition at 10 µM.
T2 sequence (P21452 whole entry): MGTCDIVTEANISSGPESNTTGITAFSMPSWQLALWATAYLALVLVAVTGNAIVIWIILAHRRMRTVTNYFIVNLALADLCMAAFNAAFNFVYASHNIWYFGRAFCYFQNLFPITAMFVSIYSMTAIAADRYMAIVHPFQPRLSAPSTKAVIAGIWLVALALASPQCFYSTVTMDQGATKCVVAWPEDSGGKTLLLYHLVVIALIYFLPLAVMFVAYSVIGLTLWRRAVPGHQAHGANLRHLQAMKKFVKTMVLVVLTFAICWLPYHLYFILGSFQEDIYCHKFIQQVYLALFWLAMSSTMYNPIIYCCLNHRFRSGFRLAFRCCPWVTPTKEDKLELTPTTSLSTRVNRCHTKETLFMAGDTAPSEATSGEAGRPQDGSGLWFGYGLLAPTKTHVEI
The class given is cell membranes, CHO, Membrane.

Assay [4] deals with Protein kinase C alpha type (Homo sapiens, UniProt P17252). The class given is cell-based. The conditions noted are these: sf9.
Assay [5] addresses T3, 5-hydroxytryptamine receptor 1A (Rattus norvegicus, UniProt P19327).
T3 sequence (P19327 whole entry): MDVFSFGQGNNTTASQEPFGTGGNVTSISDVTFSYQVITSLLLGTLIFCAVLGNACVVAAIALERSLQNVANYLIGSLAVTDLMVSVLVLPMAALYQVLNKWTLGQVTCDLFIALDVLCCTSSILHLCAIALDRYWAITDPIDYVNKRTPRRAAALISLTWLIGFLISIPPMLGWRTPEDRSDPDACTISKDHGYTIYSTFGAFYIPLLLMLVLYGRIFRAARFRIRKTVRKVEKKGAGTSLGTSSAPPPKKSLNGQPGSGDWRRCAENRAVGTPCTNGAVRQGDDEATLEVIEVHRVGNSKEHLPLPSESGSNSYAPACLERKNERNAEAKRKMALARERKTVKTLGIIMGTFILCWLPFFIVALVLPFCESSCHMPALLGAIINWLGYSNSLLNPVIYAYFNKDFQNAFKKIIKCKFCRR
The class given is cell membranes, CHO-K1, Membrane.

Sequence of Sodium-dependent noradrenaline transporter (P23975 whole entry): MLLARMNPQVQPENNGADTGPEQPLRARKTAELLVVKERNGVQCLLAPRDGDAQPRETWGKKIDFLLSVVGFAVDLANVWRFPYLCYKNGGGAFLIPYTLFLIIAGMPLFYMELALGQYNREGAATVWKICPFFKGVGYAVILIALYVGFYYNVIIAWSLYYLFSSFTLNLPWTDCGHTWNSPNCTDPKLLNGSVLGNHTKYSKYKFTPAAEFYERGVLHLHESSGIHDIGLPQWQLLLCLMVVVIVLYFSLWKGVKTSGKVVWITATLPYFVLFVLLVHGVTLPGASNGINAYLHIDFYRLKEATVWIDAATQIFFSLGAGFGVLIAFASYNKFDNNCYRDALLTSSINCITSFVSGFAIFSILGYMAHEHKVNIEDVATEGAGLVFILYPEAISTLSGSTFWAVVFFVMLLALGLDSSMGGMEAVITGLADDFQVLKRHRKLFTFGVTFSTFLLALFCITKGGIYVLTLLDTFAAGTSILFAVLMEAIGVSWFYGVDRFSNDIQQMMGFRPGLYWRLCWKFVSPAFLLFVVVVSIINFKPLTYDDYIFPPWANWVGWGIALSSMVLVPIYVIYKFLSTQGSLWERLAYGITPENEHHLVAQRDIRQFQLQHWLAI

For the molecule `CC[C@H]1OC(=O)[C@H](C)[C@@H](O[C@H]2C[C@@](C)(OC)[C@@H](O)[C@H](C)O2)[C@H](C)[C@@H](O[C@@H]2O[C@H](C)C[C@H](N(C)C)[C@H]2O)[C@](C)(O)C[C@@H](C)C(=O)[C@H](C)[C@@H](O)[C@]1(C)O` [ERYTHROMYCIN], the IC50 entry (in assay [1]; in assay [2]; in assay [3] (mdck); against Substance-K receptor (cho); in assay [4]; in assay [5] (cho-k1)) was “Not Active” throughout. For the same molecule, in assay [1], the Ki (in general, the equilibrium dissociation constant of an inhibitor or competing ligand from its target) is given as “Not Active”.

For the molecule `NC(N)=Nc1nc(CSCCC(N)=NS(N)(=O)=O)cs1` [FAMOTIDINE], the IC50 entry (in assay [1]; in assay [2]; in assay [3] (mdck); at Substance-K receptor (cho); in assay [4]; in assay [5] (cho-k1)) was “Not Active” throughout. For the same molecule, in assay [1], the Ki result is “Not Active”.

With `CN(CCOc1ccc(C[C@H](Nc2ccccc2C(=O)c2ccccc2)C(=O)O)cc1)c1ccccn1`, the IC50 (in general, the concentration that inhibits the measured activity by half) in assay [1] was “Not Active”; in assay [2] it was “Not Active”; in assay [3] (read-out: IC50), 40.3 µM; on Substance-K receptor (read-out: IC50), 14.5 µM; in assay [4], “Not Active”; in assay [5] (cho-k1) it was “Not Active”. The Ki result in assay [1] was “Not Active”; in assay [3] (read-out: Ki) it was 40 µM; at Substance-K receptor (read-out: Ki), 4.84 µM.

Consider `COc1cc(NC(C)CCCN)c2ncccc2c1` (stereo not drawn) [PRIMAQUINE], for which the half-inhibitory concentration (IC50) result (in assay [1]; in assay [2]; in assay [3] (mdck); against Substance-K receptor (cho); in assay [4]; in assay [5] (cho-k1)) was “Not Active” each time. Further, the Ki entry in assay [1] is reported as “Not Active”.

In the case of `c1ccc2sc(SSc3nc4ccccc4s3)nc2c1` [BENZOTHIAZYL DISULFIDE], the IC50 entry is “Not Active” in assay [1]; “Not Active” in assay [2]; “Not Active” in assay [3] (mdck); “Not Active” against Substance-K receptor (cho); “Not Active” in assay [4]; 0.747 µM in assay [5] (read-out: IC50). Further, the Ki entry in assay [1] was “Not Active”; in assay [5] (read-out: Ki), 0.427 µM.

In the case of `CC(C)(C#N)c1cc(Cn2cncn2)cc(C(C)(C)C#N)c1` [ANASTROZOLE], the IC50 result (in assay [1]; in assay [2]; in assay [3] (mdck); at Substance-K receptor (cho); in assay [4]; in assay [5] (cho-k1)) was “Not Active” throughout. In assay [1], the Ki result was “Not Active”.

As for `CC(=O)[C@]1(O)Cc2c(O)c3c(c(O)c2[C@@H](O[C@H]2C[C@H](N)[C@H](O)[C@H](C)O2)C1)C(=O)c1ccccc1C3=O` [IDARUBICIN], the IC50 result (in assay [1]; in assay [2]; in assay [3] (mdck); on Substance-K receptor (cho); in assay [4]; in assay [5] (cho-k1)) was “Not Active” each time. Further, the Ki entry in assay [1] is “Not Active”.

Turning to `O=C(O)c1ccccc1` [BENZOIC ACID], the IC50 result (in assay [1]; in assay [2]; in assay [3] (mdck); against Substance-K receptor (cho); in assay [4]; in assay [5] (cho-k1)) was “Not Active” each time. Also, the Ki entry in assay [1] was “Not Active”.

On to `O=C(Nc1ccc(Cl)c(Cl)c1)c1cc(Cl)cc(Cl)c1O` [3,3',4',5-TETRACHLOROSALICYLANILIDE], for which the IC50 entry (in assay [1]; in assay [2]; in assay [3] (mdck); at Substance-K receptor (cho); in assay [4]; in assay [5] (cho-k1)) was “Not Active” each time. Besides, the Ki entry in assay [1] is reported as “Not Active”.

Consider `CC(C)NCC(O)COc1ccc(CC(N)=O)cc1` (stereo not drawn) [ATENOLOL], for which the IC50 entry (in assay [1]; in assay [2]; in assay [3] (mdck); against Substance-K receptor (cho); in assay [4]; in assay [5] (cho-k1)) was “Not Active” throughout. For the same molecule, the Ki entry in assay [1] is “Not Active”.
